Columns and labels:
Assay type in all cases: biochemical
[1] = target: MMP-3CD (catalytic domain of stromelysin-1) (Homo sapiens, UniProt P08254); assay: Thiopeptolide hydrolysis assay, MMP-3CD; conditions: Table 2; thiopeptolide substrate, MES buffer pH 6.0; read-out: IC50 (μM) Versus Certain MMPs: MMP03 (CD)
Method: (§1) The invention compounds of Formula I have been evaluated in standard assays for their ability to inhibit the catalytic activity of various MMP enzymes.
(§2) Thiopeptolide substrates show virtually no decomposition or hydrolysis at or below neutral pH in the absence of a matrix metalloproteinase enzyme.
(§3) Several representative compounds have been evaluated for their ability to inhibit various matrix metalloproteinase enzymes.
It should be appreciated that the assay buffer used with MMP-3CD was 50 mM of N-morpholinoethane sulfonate (“MES”) at pH 6.0 rather than the HEPES buffer at pH 7.0 described above.

[2] = target: T1, MMP-1FL (full-length interstitial collagenase) (Homo sapiens, UniProt P03956); assay: Thiopeptolide hydrolysis assay, MMP-1FL; conditions: Table 2; thiopeptolide substrate, HEPES pH 7.0; read-out: IC50 (μM) Versus Certain MMPs: MMP01 (FL)
T1 sequence (P03956 100-469): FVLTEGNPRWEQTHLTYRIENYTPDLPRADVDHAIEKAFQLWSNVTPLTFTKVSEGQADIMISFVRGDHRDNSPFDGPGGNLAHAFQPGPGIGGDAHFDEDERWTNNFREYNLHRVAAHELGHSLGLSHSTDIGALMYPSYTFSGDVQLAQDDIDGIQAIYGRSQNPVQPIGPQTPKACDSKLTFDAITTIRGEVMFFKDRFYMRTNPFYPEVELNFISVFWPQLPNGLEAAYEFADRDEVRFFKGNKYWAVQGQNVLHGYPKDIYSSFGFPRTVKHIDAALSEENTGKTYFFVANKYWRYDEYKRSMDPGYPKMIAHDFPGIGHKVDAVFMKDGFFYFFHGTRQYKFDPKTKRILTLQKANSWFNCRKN
Source text: as §1, §2, §3

[3] = target: MMP-9FL (full-length Gelatinase B) (Homo sapiens, UniProt P14780); assay: Thiopeptolide hydrolysis assay, MMP-9FL; conditions: Table 2; thiopeptolide substrate, HEPES pH 7.0; read-out: IC50 (μM) Versus Certain MMPs: MMP09 (FL)
Chain of MMP-9FL (full-length Gelatinase B) (P14780 94-707, species assumed): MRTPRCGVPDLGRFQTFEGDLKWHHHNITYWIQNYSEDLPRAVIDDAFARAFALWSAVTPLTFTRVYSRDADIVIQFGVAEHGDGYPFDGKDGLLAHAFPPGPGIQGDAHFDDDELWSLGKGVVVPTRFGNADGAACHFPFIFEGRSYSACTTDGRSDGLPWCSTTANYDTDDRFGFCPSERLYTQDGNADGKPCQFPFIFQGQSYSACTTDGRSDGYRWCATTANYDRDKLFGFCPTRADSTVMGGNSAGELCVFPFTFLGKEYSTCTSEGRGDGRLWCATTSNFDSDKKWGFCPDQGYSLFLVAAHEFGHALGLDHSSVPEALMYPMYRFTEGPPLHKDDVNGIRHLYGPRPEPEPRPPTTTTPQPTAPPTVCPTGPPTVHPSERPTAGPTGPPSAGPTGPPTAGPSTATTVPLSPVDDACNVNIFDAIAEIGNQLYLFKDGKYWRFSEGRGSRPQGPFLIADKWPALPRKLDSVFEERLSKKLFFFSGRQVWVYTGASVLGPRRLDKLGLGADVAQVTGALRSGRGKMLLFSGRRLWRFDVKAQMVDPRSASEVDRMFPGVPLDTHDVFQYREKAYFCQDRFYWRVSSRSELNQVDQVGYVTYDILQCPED
Source text: as §1, §2, §3

[4] = target: T2, MMP-7FL (full-length matrilysin) (Homo sapiens, UniProt P09237); assay: Thiopeptolide hydrolysis assay, MMP-7FL; conditions: Table 2; thiopeptolide substrate, HEPES pH 7.0; read-out: IC50 (μM) Versus Certain MMPs: MMP07 (FL)
T2 sequence (P09237 95-267): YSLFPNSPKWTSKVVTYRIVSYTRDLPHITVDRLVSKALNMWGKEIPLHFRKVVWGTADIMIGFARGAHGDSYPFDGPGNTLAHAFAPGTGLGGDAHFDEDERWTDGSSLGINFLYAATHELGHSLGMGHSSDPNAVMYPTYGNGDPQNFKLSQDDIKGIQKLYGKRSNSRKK
Source text: as §1, §2, §3

[5] = target: MMP-13CD (catalytic domain of collagenase 3) (Homo sapiens, UniProt P45452); assay: Thiopeptolide hydrolysis assay, MMP-13CD; conditions: Table 2; thiopeptolide substrate, HEPES pH 7.0; read-out: IC50 (μM) Versus Certain MMPs: MMP13 (CD)
Source text: as §1, §2, §3

[6] = target: MMP-14CD (catalytic domain of MMP-14) (Homo sapiens, UniProt P50281); assay: Thiopeptolide hydrolysis assay, MMP-14CD; conditions: Table 2; thiopeptolide substrate, HEPES pH 7.0; read-out: IC50 (μM) Versus Certain MMPs: MMP14 (CD)
Source text: as §1, §2, §3

Chain of MMP-3CD (catalytic domain of stromelysin-1) (P08254 100-272 limits assumed): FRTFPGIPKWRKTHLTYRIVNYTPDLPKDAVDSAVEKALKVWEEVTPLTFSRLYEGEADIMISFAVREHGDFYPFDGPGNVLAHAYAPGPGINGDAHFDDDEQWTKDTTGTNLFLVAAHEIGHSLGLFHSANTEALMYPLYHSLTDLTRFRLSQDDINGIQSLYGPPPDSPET

| SMILES | IC50 [1] [µM] | IC50 [2] [µM] | IC50 [3] [µM] | IC50 [4] [µM] | IC50 [5] [µM] | IC50 [6] [µM] |
| --- | --- | --- | --- | --- | --- | --- |
| COc1ccc(CNC(=O)c2ccc3c(c2)S(=O)(=O)N(Cc2ccc(C(N)=O)cc2)C(=O)N3C)cc1 [Example 14, 2-(4-Carbamoyl-benzyl)-4-methyl-1,1,3-trioxo-1,2,3,4-tetrahydro-1l^6-benzo[1,2,4]thiadiazine-7-carboxylic acid 4-methoxy-benzylamide] | > 100 | > 30 | > 30 | > 30 | 0.155 | > 30 |
| CN1C(=O)N(Cc2ccccc2)S(=O)(=O)c2cc(C(=O)NCc3ccc(F)cc3)ccc21 [Example 16, 2-Benzyl-4-methyl-1,1,3-trioxo-1,2,3,4-tetrahydro-1l^6-benzo[1,2,4]thiadiazine-7-carboxylic acid 4-fluoro-benzylamide] | > 100 | > 100 | > 30 | > 30 | 0.345 | > 30 |
| CNS(=O)(=O)c1ccc(CN2C(=O)N(C)c3ccc(C(=O)NCc4ccc(OC)cc4)cc3S2(=O)=O)cc1 [Example 18, 4-Methyl-2-(4-methylsulfamoyl-benzyl)-1,1,3-trioxo-1,2,3,4-tetrahydro-1l^6-benzo[1,2,4]thiadiazine-7-carboxylic acid 4-methoxy-benzylamide] | 10 | > 30 | > 30 | > 30 | 0.31 | > 30 |
| COc1ccc(CNC(=O)c2ccc3c(c2)S(=O)(=O)N(Cc2ccc(S(=O)(=O)N4CCOCC4)cc2)C(=O)N3C)cc1 [Example 19, 4-Methyl-2-[4-(morpholine-4-sulfonyl)-benzyl]-1,1,3-trioxo-1,2,3,4-tetrahydro-1l^6-benzo[1,2,4]thiadiazine-7-carboxylic acid 4-methoxy-benzylamide] | 11 | > 30 | > 30 | > 30 | 0.23 | > 30 |
| COC(=O)c1ccc(CN2C(=O)N(C)c3ccc(C(=O)NCc4ccc(F)cc4)cc3S2(=O)=O)cc1 [Example 20, 4-[7-(4-Fluoro-benzylcarbamoyl)-4-methyl-1,1,3-trioxo-3,4-dihydro-1H-1l^6-benzo[1,2,4]thiadiazin-2-ylmethyl]-benzoic Acid Methyl Ester] | > 30 | > 30 | 10 | > 30 | 0.385 | > 30 |
| COc1cc(CNC(=O)c2ccc3c(c2)S(=O)(=O)N(Cc2ccccc2)C(=O)N3C)ccn1 [Example 21, 2-Benzyl-4-methyl-1,1,3-trioxo-1,2,3,4-tetrahydro-1l^6-benzo[1,2,4]thiadiazine-7-carboxylic acid (2-methoxy-pyridin-4-ylmethyl)-amide] | > 30 | > 30 | > 30 | > 30 | 0.155 | > 100 |
| COc1ccc(CNC(=O)c2ccc3c(c2)S(=O)(=O)N(Cc2ccc4ccccc4c2)C(=O)N3C)cc1 [Example 22, 4-Methyl-2-naphthalen-2-ylmethyl-1,1,3-trioxo-1,2,3,4-tetrahydro-1l^6-benzo[1,2,4]thiadiazine-7-carboxylic acid 4-methoxy-benzylamide] | > 30 | > 30 | > 30 | > 30 | 0.62 | > 30 |
| CN1C(=O)N(Cc2ccccc2)S(=O)(=O)c2cc(C(=O)NCc3ccc4nsnc4c3)ccc21 [Example 24, 2-Benzyl-4-methyl-1,1,3-trioxo-1,2,3,4-tetrahydro-1l^6-benzo[1,2,4]thiadiazine-7-carboxylic acid (2,1,3-benzothiadiazol-5-ylmethyl)-amide] | 13 | > 30 | > 30 | > 30 | 0.125 | > 30 |
| CN1C(=O)N(Cc2ccc(C(=O)O)cc2)S(=O)(=O)c2cc(C(=O)NCc3ccc(F)cc3)ccc21 [Example 25, 4-[7-(4-Fluoro-benzylcarbamoyl)-4-methyl-1,1,3-trioxo-3,4-dihydro-1H-1l^6-benzo[1,2,4]thiadiazin-2-ylmethyl]-benzoic Acid] | > 30 | > 100 | > 100 | > 100 | 0.019 | > 100 |
| COc1ccc(CNC(=O)c2ccc3c(c2)S(=O)(=O)N(Cc2ccc(C(=O)N4CCCCC4)cc2)C(=O)N3C)cc1 [Example 27, 4-Methyl-1,1,3-trioxo-2-[4-(piperidine-1-carbonyl)-benzyl]-1,2,3,4-tetrahydro-1l^6-benzo[1,2,4]thiadiazine-7-carboxylic acid 4-methoxy-benzylamide] | 10 | > 30 | > 30 | > 30 | 0.29 | > 30 |
| COc1ccc(CNC(=O)c2ccc3c(c2)S(=O)(=O)N(Cc2ccc(C(=O)NC(C(=O)O)C(C)C)cc2)C(=O)N3C)cc1 (stereo not drawn) [Example 28, 2-{4-[7-(4-Methoxy-benzylcarbamoyl)-4-methyl-1,1,3-trioxo-3,4-dihydro-1l^6-benzo[1,2,4]thiadiazin-2-ylmethyl]-benzoylamino}-3-methyl-butyric Acid] | > 30 | > 100 | > 100 | > 100 | 0.25 | > 100 |
| COc1ccc(CNC(=O)c2ccc3c(c2)S(=O)(=O)N(Cc2ccc(C#N)cc2)C(=O)N3C)cc1 [Example 29, 2-(4-Cyano-benzyl)-4-methyl-1,1,3-trioxo-1,2,3,4-tetrahydro-1l^6-benzo[1,2,4]thiadiazine-7-carboxylic acid 4-methoxy-benzylamide] | 9.4 | > 30 | > 30 | > 30 | 0.13 | > 30 |
| COc1ccc(CNC(=O)c2ccc3c(c2)S(=O)(=O)N(Cc2ccc(CC(=O)O)cc2)C(=O)N3C)cc1 [Example 30, {4-[7-(4-Methoxy-benzylcarbamoyl)-4-methyl-1,1,3-trioxo-3,4-dihydro-1H-1l^6-benzo[1,2,4]thiadiazin-2-ylmethyl]-phenyl}-acetic Acid] | > 30 | > 100 | > 100 | 82 | 0.0355 | > 100 |
| COc1cccc(CNC(=O)c2ccc3c(c2)S(=O)(=O)N(Cc2ccc(C(=O)O)cc2)C(=O)N3C)c1 [Example 31, 4-[7-(3-Methoxy-benzylcarbamoyl)-4-methyl-1,1,3-trioxo-3,4-dihydro-1H-1l^6-benzo[1,2,4]thiadiazin-2-ylmethyl]-benzoic Acid] | > 30 | > 100 | > 100 | > 30 | 0.00485 | > 100 |
| COc1ccc(CNC(=O)c2ccc3c(c2)S(=O)(=O)N(Cc2ccc(-c4nn[nH]n4)cc2)C(=O)N3C)cc1 [Example 32, 4-Methyl-1,1,3-trioxo-2-[4-(2H-tetrazol-5-yl)-benzyl]-1,2,3,4-tetrahydro-1l^6-benzo[1,2,4]thiadiazine-7-carboxylic acid 4-methoxy-benzylamide] | 15 | > 100 | > 100 | > 30 | 0.0062 | > 100 |
| COc1cccc(CNC(=O)c2ccc3c(c2)S(=O)(=O)N(Cc2ccccc2)C(=O)N3C)c1 [Example 34, 2-Benzyl-4-methyl-1,1,3-trioxo-1,2,3,4-tetrahydro-1l^6-benzo[1,2,4]thiadiazine-7-carboxylic acid 3-methoxy-benzylamide] | > 100 | > 30 | > 30 | > 30 | 0.0625 | > 30 |

Reference: patent publication US6656932B2, “Benzo thiadiazine matrix metalloproteinase inhibitors” (Warner-Lambert Company, priority 2001, dated 2003)
